Measured values from patent US10906878B2, “Kinase inhibitors for the treatment of disease” (Dana-Farber Cancer Institute, Inc., priority 2013, dated 2021).

Experiments:
[1] = molecular target: EGFR Del/T790M Ba/F3 cells (Homo sapiens, UniProt P00533, T790M, cells depend on it, form not given); test: Ba/F3 cell growth inhibition (MTS assay), EGFR Del/T790M; type: cell-based; settings: for EGFR activity (% Control, 1.0 μM drug) Assay 1 Del/T790M / IC50: Assay 1; for IC50: Del/T790M, read-out: EGFR Ba/F3 cells IC 50 (nM) Assay 1 Del/T790M
From the text: (§1) The specific cDNAs encoding the oncogenic alterations (EGFR: Del 19, L858R, L718Q, L844V, Del/T790M, L858R/T790M, Del 19/L718Q, Del 19/L844V, Del 19/T790M/L718Q and L858R/T790M/L718Q; FGFR: TEL-FGFR1, TEL-FGFR2, TEL-FGFR1 V561M, TEL-FGFR2 V561M; ALK: EML4-ALK; ROS1: CD74-ROS1) were cloned into the pDNA-Dual (BD Biosciences) vector using standard molecular biology techniques. Mutations were introduced using site-directed mutagenesis (Agilent) with mutant specific primers according to the manufacturer's instructions. All constructs were confirmed by DNA sequencing. The constructs were introduced into Ba/F3 cells using retroviral infection. Polyclonal cell lines were established by puromycin selection and subsequently cultured in the absence of interleukin-3 (IL-3). Uninfected Ba/F3 cells or cell lines expressing green fluorescent protein (GFP) were used as controls.
(§2) Growth and inhibition of growth was assessed by MTS assay. This assay, a colorimetric method for determining the number of viable cells, is based on the bioreduction of 3-(4,5-dimethylthiazol-2-yl)-5-(3-carboxymethoxyphenyl)-2-(4-sulfophenyl)-2H-tetrazolium (MTS) by cells to a formazan product that is soluble in cell culture medium, can be detected spectrophotometrically and was performed according to the manufacturer's recommended conditions. Ba/F3 cells were exposed to treatment for 72 hours and the number of cells used per experiment determined empirically to assure linear growth kinetics over that time period. All experimental points were set up in six to twelve wells and all experiments were repeated at least three times. […] The curves were fitted using a non-linear regression model with a sigmoidal dose response.

[2] = molecular target: EGFR L858R Ba/F3 cells (Homo sapiens (Human), UniProt P00533, L858R); test: Ba/F3 cell growth inhibition (MTS assay), EGFR L858R; type: cell-based; settings: for EGFR activity (% Control, 1.0 μM drug) Assay 1 L858R / IC50: Assay 1; for IC50: L858R, read-out: EGFR Ba/F3 cells IC 50 (nM) Assay 1 L858R
From the text: as §1, §2

[3] = molecular target: EGFR Del/T790M/L718Q Ba/F3 cells (Homo sapiens, UniProt P00533, L718Q/T790M, cells depend on it, form not given); type: cell-based; settings: 1.0 μM drug
From the text: as §1, §2

[4] = tested on: KIF5B/Ret_V804M; test: Ba/F3 cell growth inhibition (MTS assay), KIF5B/Ret_V804M; type: cell-based
Protocol: as §2

[5] = molecular target: EGFR Del Ba/F3 cells (Homo sapiens, UniProt P00533, cells depend on it, form not given); test: Ba/F3 cell growth inhibition (MTS assay), EGFR Del; type: cell-based; settings: for EGFR activity (% Control, 1.0 μM drug) Assay 1 Del / IC50: Assay 1; for IC50: Del, read-out: EGFR Ba/F3 cells IC 50 (nM) Assay 1 Del
From the text: as §1, §2

[6] = molecular target: EGFR L858R/T790M Ba/F3 cells (Homo sapiens (Human), UniProt P00533, L858R/T790M); test: Ba/F3 cell growth inhibition (MTS assay), EGFR L858R/T790M; type: cell-based; settings: Assay 1; L858R/T790M; read-out: EGFR Ba/F3 cells IC 50 (nM) Assay 1 L858R/T790M
From the text: as §1, §2

[7] = molecular target: EGFR Wild type vIII Ba/F3 cells (Homo sapiens (Human), UniProt P00533, DELINS30-297G); test: Ba/F3 cell growth inhibition (MTS assay), EGFR Wild type vIII; type: cell-based; settings: Assay 1, read-out: EGFR Ba/F3 cells IC 50 (nM) Assay 1 Wild type vIII
[8] = molecular target: EGFR L858R/T790M/L718Q Ba/F3 cells (Homo sapiens (Human), UniProt P00533, L718Q/L858R/T790M); test: Ba/F3 cell growth inhibition (MTS assay), EGFR L858R/T790M/L718Q; type: cell-based; settings: Assay 1; T/L/L718Q; read-out: EGFR Ba/F3 cells IC 50 (nM) Assay 1 T/L/L718Q
From the text: as §1, §2

[9] = Microsome Stability Mouse; type: in vitro ADME; settings: mouse microsomes

Row | SMILES | IC50 [1] | IC50 [2] | IC50 [6] | IC50 [7] | IC50 [8] | Microsome Stability Mouse min [9] | IC50 [5] | EGFR activity (% Control, 1.0 μM drug) Assay 1 Del/T790M [1] | EGFR activity (% Control, 1.0 μM drug) Assay 2 Del/T790M [1] | EGFR activity (% Control, 1.0 μM drug) Assay 1 L858R [2] | EGFR activity (% Control, 1.0 μM drug) Assay 2 L858R [2] | EGFR activity (% Control, 1.0 μM drug) Assay 1 Del/T790M/L718Q [3] | EGFR activity (% Control, 1.0 μM drug) Assay 2 Del/T790M/L718Q [3] | EGFR activity (% Control, 1.0 μM drug) Assay 1 KIF5B/Ret_V804M [4] | EGFR activity (% Control, 1.0 μM drug) Assay 1 Del [5] | EGFR activity (% Control, 1.0 μM drug) Assay 2 Del [5]
1 | C=CC(=O)Nc1ccc(OC)c(Nc2cc(N(C(=O)Nc3c(C)cccc3C)c3ccc(N4CCN(CC)CC4)cc3)ncn2)c1 [Compound 9A] | – | – | – | – | – | – | – | 2 % Control | 39 % Control | 2 % Control | 2 % Control | 90 % Control | 86 % Control | 93 % Control | 3 % Control | 4 % Control
2 | C=CC(=O)Nc1cccc(N(C(=O)Nc2ccccc2Cl)c2cc(Nc3ccc(N4CCN(C)CC4)cc3OC)ncn2)c1 [Compound 11A] | – | – | – | – | – | – | – | 1 % Control | 5 % Control | 2 % Control | 3 % Control | 84 % Control | 82 % Control | 103 % Control | 3 % Control | 4 % Control
3 | C=CC(=O)Nc1ccc(OC)c(N(C(=O)Nc2c(C)cccc2C)c2cc(Nc3ccc(N4CCN(CC)CC4)cc3)ncn2)c1 [Compound 8A] | – | – | – | – | – | – | – | 1 % Control | 100 % Control | 2 % Control | 10 % Control | 113 % Control | 93 % Control | 108 % Control | 3 % Control | 72 % Control

More lines, main results first:

Row | IC50 [1] | IC50 [2] | IC50 [6] | IC50 [7] | IC50 [8] | Microsome Stability Mouse min [9] | IC50 [5] | SMILES | EGFR activity (% Control, 1.0 μM drug) Assay 1 Del/T790M [1] | EGFR activity (% Control, 1.0 μM drug) Assay 2 Del/T790M [1] | EGFR activity (% Control, 1.0 μM drug) Assay 1 L858R [2] | EGFR activity (% Control, 1.0 μM drug) Assay 2 L858R [2] | EGFR activity (% Control, 1.0 μM drug) Assay 1 Del/T790M/L718Q [3] | EGFR activity (% Control, 1.0 μM drug) Assay 2 Del/T790M/L718Q [3] | EGFR activity (% Control, 1.0 μM drug) Assay 1 KIF5B/Ret_V804M [4] | EGFR activity (% Control, 1.0 μM drug) Assay 1 Del [5] | EGFR activity (% Control, 1.0 μM drug) Assay 2 Del [5]
4 | 60.4 nM | 0.51 nM | 20 nM | 10.1 nM | 312 nM | 9.4 min | 19.7 nM | C=CC(=O)Nc1cccc(N(C(=O)N[C@@H](C)c2ccccc2)c2cc(Nc3ccc(N4CCN(C)CC4)cc3OC)ncn2)c1 [Compound 34A] | – | – | – | – | – | – | – | – | –
5 | 68.2 nM | 2.66 nM | 41.8 nM | 19.9 nM | 2240 nM | – | 23.9 nM | C=CC(=O)Nc1cccc(N(C(=O)NCc2ccccc2)c2cc(Nc3ccc(N4CCN(C)CC4)cc3OC)nc(Cl)n2)c1 [Compound 78A] | – | – | – | – | – | – | – | – | –
6 | 15.9 nM | 0.5 nM | 2.4 nM | 2.3 nM | 657 nM | 1.8 min | 2 nM | C=CC(=O)Nc1cccc(N(C(=O)NCc2cccs2)c2cc(Nc3ccc(N4CCOCC4)cc3OC)ncn2)c1 [Compound 55A] | – | – | – | – | – | – | – | – | –
